Tests used:
[1] = test system: healthy volunteers; experiment: 24-hour continuous infusion dose escalation safety study in healthy volunteers; assay type: in vivo, human
Method: To determine whether a local phlebitis would occur in humans upon longer duration dosing, a longer duration study was conducted in healthy volunteers. The longer duration study included a dose escalation study in which cohorts of 10 volunteers were to be sequentially administered a 24-hour continuous infusion of CXL-1020 at the dose rates of 10, 20, and 30 μg/kg/min with a safety assessment between each cohort. Each cohort consisted of 2 placebo and 8 active treatments with a sentinel pair of 1 active and 1 placebo followed by the main group of 1 placebo and 7 active treatments. The infusion was via a percutaneous catheter inserted into a forearm vein. The catheter was switched to the contralateral arm after 12 hours of infusion.

[2] = test system: patients with systolic heart failure; details: cited from earlier work
[3] = Stability of dosing solutions of compound of formula (2) stored at 25° C. (Example 11); assay type: physicochemical
Method: A series of dosing solutions of the compound of formula (2) for IV administration was assessed. The selected concentrate of compound of formula (2), prepared at 30 mg/mL in a vehicle of 30% CAPTISOL® at pH 4.0, was evaluated at low, mid, and high concentrations (0.1, 1 and 5 mg/mL, respectively) upon dilution into various dosing solutions. For dilution of the compound of formula (2) to 0.1 and 1 mg/mL, three dosing solutions were evaluated; 1) D5W, 2) D5W with 5 mM K-phosphate (pH=6), and 3) D5W with 20 mM K-phosphate (pH=6). To maintain iso-osmolality for dilutions of the compound of formula (2) to 5 mg/mL, the concentration of dextrose in the dosing solutions was reduced to 2.5% (w/v). Thus, the dosing solutions evaluated were; (1) D2.5W, (2) D2.5W with 5 mM K-phosphate (pH=6), and (3) D2.5W with 20 mM K-phosphate (pH=6).
The potential dosing solutions were assessed for visual appearance, pH, osmolality, and concentration and purity by HPLC (XBridge Phenyl Column (Waters); UV absorbance detector at 272 nm; mobile phase a step gradient of aqueous acetonitrile containing 0.1% (v/v) formic acid) after approximately 0, 16, 24, and 48 hours of storage at 25° C. […] In addition, the known degradant, the compound of formula (101), formed by release of the active HNO group, was observed after 16 hours at 25° C. in small quantities by HPLC in the dosing solutions containing phosphate buffer. […]

Row | Structure (SMILES) | tolerability ([1]; 10 μg/kg/min for 24-hours) | adverse findings ([1]; 20 μg/kg/min for 24-hours) | hemodynamic effects in patients with systolic heart failure ([2]; intravenous aqueous solution at pH=4) | side effects at threshold doses needed to produce hemodynamic effects ([2]; intravenous) | osmolality ([3]; 1 mg/mL in D5W with 20 mM phosphate) | visual appearance ([3]; 5 mg/mL in D2.5W with 5 mM phosphate (pH 6.0), after 48 hours at 25° C.)
1 | CS(=O)(=O)c1ccccc1S(=O)(=O)NO [CXL-1020, N-hydroxy-2-methanesulfonylbenzene-1-sulfonamide, reference compound] | well tolerated | mild findings (either clinical signs and/or changes in clinical pathology) in all 8 subjects consistent with infusion site phlebitis | reduced both left and right heart filling pressures and systemic vascular resistance, while increasing cardiac and stroke volume index | unacceptable levels of inflammatory irritation at and distal to the intravenous insertion site | – | –
2 | CS(=O)(=O)c1cccc(S(=O)(=O)NO)c1 [Compound 2, N-Hydroxy-3-methanesulfonylbenzene-1-sulfonamide] | – | – | – | – | approximately 350 mOsm/kg | clear, light yellow
